Laboratory results taken from patent US20090137652A1, “METHODS FOR NEUROPROTECTION” (priority 2005, published 2009).

Key:
Format in all cases: in vivo, rat
[1] = tested on: rats subjected to Li-pilo induced SE; test: Timm staining, mossy fiber sprouting in hippocampus (Example 1)
Procedure: At 2 months after the onset of spontaneous recurrent seizures, mossy fiber sprouting was examined on rats in the chronic period exposed to the test compound or DZP and in 3 saline-saline rats. Animals were deeply anaesthetized and perfused transcardially with saline followed by 100 ml of 1.15% (w/v) Na2S in 0.1 M phosphate buffer, and 100 ml of 4% (v/v) formaldehyde in 0.1 M phosphate buffer. Brains were removed from skull, post-fixed in 4% formaldehyde during 3-5 h and 40 μm sections were cut on a sliding vibratome and mounted on gelatin-coated slides.
The following day, sections were developed in the dark in a 26° C. solution of 50% (w/v) arabic gum (160 ml), sodium citrate buffer (30 ml), 5.7% (w/v) hydroquinone (80 ml) and 10% (w/v) silver nitrate (2.5 ml) during 40-45 min. The sections were then rinsed with tap water at 40° C. during at least 45 min, rinsed rapidly with distilled water and allowed to dry. They were dehydrated in ethanol and coverslipped.
Mossy fiber sprouting was evaluated according to criteria previously described in dorsal hippocampus (Cavazos et al., 1991, J Neurosci 11:2795-2803), which are follows: O— no granules between the tips and crest of the DG; 1—sparse granules in the supragranular region in a patchy distribution between the tips and crest of DG; 2—more numerous granules in a continuous distribution between the tips and crest of DG; 3—prominent granules in a continuous pattern between tips and crest, with occasional patches of confluent granules between tips and crest; 4—prominent granules that form a confluent dense laminar band between tips and crest and 5—confluent dense laminar band of granules that extends into the inner molecular layer.

[2] = tested on: rats subjected to Li-pilo induced SE; test: Latency to and frequency of spontaneous recurrent seizures (SRS), lithium-pilocarpine model (Example 1)
Procedure: (§1) All rats received lithium chloride (3 meq/kg, i.p., Sigma, St Louis, Mo., U.S.A.); about 20 h later, animals were placed into plexiglas boxes, in order to record baseline cortical EEG. Methylscopolamine bromide (1 mg/kg, s.c., Sigma) was administered to limit the peripheral effects of the convulsant. SE was induced by injecting pilocarpine hydrochloride (25 mg/kg, s.c., Sigma) 30 min after methyl-scopolamine. The bilateral EEG cortical activity was recorded during the whole duration of SE and behavioral changes were noted.
(§2) The effects of increasing doses of the test compound were studied on 3 groups of rats. The animals of the first group received 10 mg/kg of the test compound, i.p., 1 h after the onset of SE (pilo-TC10) while the animals of groups 2 and 3 received 30 and 60 mg/kg of the test compound (pilo-TC30 and pilo-TC60), respectively.
(§3) Another group was injected with 2 mg/kg diazepam (DZP, i.m.) at 1 h after the onset of SE. This is a standard treatment to improve animals survival after SE (pilo-DZP). The control group received saline instead of pilocarpine and the test compound (saline-saline). The pilo-test compound rats surviving SE were then injected about 10 h after the first test compound injection with a second i.p. injection of the same dose of the test compound and were maintained under a twice daily treatment with the test compound for 6 additional days. Pilo-DZP received a second injection of 1 mg/kg DZP on the day of SE at about 10 h after the first one. Thereafter, Pilo-DZP and saline-saline rats received twice daily an equivalent volume of saline.
The effects of the test compound on the EEG and on the latency to occurrence of SRS were investigated by daily video recording of the animals for 10 h per day and the recording of the electrographic activity twice a week for 8 h.
To calculate the frequency of SRS in pilocarpine-exposed rats, the seizure severity and distinguished stage III (clonic seizures of facial muscles and anterior limbs) and stage IV-V seizures (rearing and falling) was considered. The frequency of stage III SRS per week in pilo-DZP and pilo-test compound rats was variable amongst the groups. It was low, constant in the pilo-DZP and pilo-TC60 (with early SRS onset) groups during the first 3 weeks and had disappeared during the 4th week in the pilo-DZP group. […] The frequency of more severe stage IV-V SRS was highest during the first week in most groups, except pilo-TC30 and TC60 with late seizure onset where the SRS frequency was constant over the whole 4 weeks in TC30 group and over the first two weeks in the pilo-TC60 group with late SRS onset in which no stage IV-V seizures where no seizures recorded after the second week.

[3] = tested on: rats subjected to Li-pilo induced SE; test: Mortality induced by lithium-pilocarpine status epilepticus (Example 1)
Procedure: Male Wistar rats weighing 225-250 g, provided by Janvier Breeding Center (Le Genest-St-lste, France) were housed under controlled standard conditions (light/dark cycle, 7.00 a.m.-7.00 p.m. lights on), with food and water available ad libitum. All animal experimentation was performed in accordance with the rules of the European Communities Council Directive of Nov. 24, 1986 (86/609/EEC), and the French Department of Agriculture (License No 67-97). For electrode implantation, rats were anesthetized by an i.p. injection of 2.5 mg/kg diazepam (DZP, Valium, Roche, France) and […] ketamine chlorhydrate (Imalgene 1000, Rhone Merrieux, France). Four single-contact recording electrodes were placed on the skull, over the parietal cortex, two on each side.
as §1, §2, §3
The difference was statistically significant (p<0.01).

CN1C(=O)CN=C(c2ccccc2)c2cc(Cl)ccc21 [DZP, diazepam, reference compound]
mean Timm score, upper blade of the dentate gyrus ([1]; pilo-DZP, n=9, score scale 0-5): 2.8±0.8
frequency of stage IV-V SRS ([2]; pilo-DZP, first week): 11.3 SRS per week
latency to SRS ([2]; pilo-DZP, n=9): 18.2 ± 6.9 days
degree of mortality during the first 48 h after SE ([3]; pilo-DZP, DZP 2 mg/kg i.m. 1 h after onset of SE, 5/22): 23%

NC(=O)OC[C@@H](O)c1ccccc1Cl [Formula 7]
mean Timm score, upper blade of the dentate gyrus ([1]; pilo-TC10, n=7, p=0.032 vs pilo-DZP): 1.5±0.6
mean Timm score, upper blade of the dentate gyrus ([1]; pilo-TC30, n=10): 2.6±1.0
mean Timm score, upper blade of the dentate gyrus ([1]; pilo-TC60 subgroup with early SRS occurrence, n=6): 1.8±0.6
mean Timm score, upper blade of the dentate gyrus ([1]; pilo-TC60 subgroup with late occurrence or absence of SRS, n=5, p=0.016 vs pilo-DZP): 1.2±0.6
mean Timm score, upper blade of the dentate gyrus ([1]; whole group of pilo-TC60 rats, n=11): 1.5±0.7
mean delay to becoming epileptic relative to the other groups of animals ([2]; TC 60 mg/kg, subgroup of animals with delayed SRS): about 9 fold
rats in which occurrence of spontaneous seizures was delayed ([2]; TC 60 mg/kg, 4 out of 11): 36%
frequency of stage IV-V SRS ([2]; TC10, TC30 and TC60 (with early SRS onset) groups, first week, significantly reduced vs pilo-DZP): 2.3-6.1 SRS per week
absence of epilepsy ([2]; TC60 (60 mg/kg)): one rat did not become epileptic in a delay of 9 months post-SE
latency to SRS ([2]; TC60 (60 mg/kg), subgroup with latency similar to other groups, n=7): 17.6 ± 8.7 days
latency to SRS ([2]; TC60 (60 mg/kg), subgroup with much longer delay, mean, n=4): 149.8 ± 36.0 days
latency to SRS ([2]; pilo-TC10 (10 mg/kg, 7-day treatment), n=7): 15.4 ± 5.1 days
frequency of stage III SRS ([2]; pilo-TC10, weeks 3 and 4): significantly increased over pilo-DZP values
latency to SRS ([2]; pilo-TC30 (30 mg/kg, 7-day treatment), n=10): 18.9 ± 9.0 days
frequency of stage IV-V SRS ([2]; pilo-TC60 group with early SRS onset, weeks 2-4, significantly reduced vs pilo-DZP): 0.6-0.9 seizure per week
degree of mortality during the first 48 h after SE ([3]; pilo-TC10, TC 10 mg/kg i.p. 1 h after onset of SE, 6/23): 26%
degree of mortality during the first 48 h after SE ([3]; pilo-TC30, TC 30 mg/kg i.p. 1 h after onset of SE, 5/25): 20%
degree of mortality during the first 48 h after SE ([3]; pilo-TC60, TC 60 mg/kg i.p. 1 h after onset of SE, 1/23, p<0.01): 4%
